Results as given in ChEMBL document CHEMBL4417632, “Inhibitors of alpha-amino-beta-carboxymuconic acid semialdehyde decarboxylase” (2017).
Each block holds one compound with its values, some of them ahead of it. Active and inactive are the calls of the source. The rule behind the calls is not given here.

What was measured:
[1] = Cytotoxicity in mouse AML-12 cells assessed as reduction inc ell viability at 10 nM to 300 uM incubated for 4 hrs by LDH release assay; assay type: cell-based
HepG2 = experiment: Cytotoxicity against human HepG2 cells assessed as reduction in cell viability at 0.01 to 300 uM incubated for 4 hrs by LDH release assay; assay type: cell-based; details: hepg2, 4 h
[2] = molecular target: 2-amino-3-carboxymuconate-6-semialdehyde decarboxylase (Homo sapiens) (UniProt Q8TDX5); experiment: Inhibition of ACMSD in human primary hepatocytes assessed as increase in NAD concentration at 250 uM following compound replacement every 24 hrs by LC-MS/MS analysis; assay type: cell-based
[3] = molecular target: 2-amino-3-carboxymuconate-6-semialdehyde decarboxylase (Homo sapiens) (UniProt Q8TDX5); experiment: Inhibition of ACMSD in human primary hepatocytes assessed as increase in NAD concentration at 0.5 uM following compound replacement every 24 hrs by LC-MS/MS analysis; assay type: cell-based
[4] = molecular target: 2-amino-3-carboxymuconate-6-semialdehyde decarboxylase (Homo sapiens) (UniProt Q8TDX5); experiment: Inhibition of ACMSD in human primary hepatocytes assessed as increase in NAD concentration at 5 uM following compound replacement every 24 hrs by LC-MS/MS analysis; assay type: cell-based
MDCK [5] = experiment: Inhibition of cisplatin-induced apoptosis in MDCK cells assessed as reduction in caspase 3/7 activity at 100 uM pre-incubated for 1 hr before cisplatin challenge for 16 hrs by luminescence based assay; assay type: functional, cell-based; details: Canis lupus familiaris
MDCK [6] = experiment: Inhibition of cisplatin-induced apoptosis in MDCK cells assessed as reduction in caspase 3/7 activity at 30 to 125 uM pre-incubated for 1 hr before cisplatin challenge for 16 hrs by luminescence based assay; assay type: functional, cell-based; details: Canis lupus familiaris
MDCK [7] = experiment: Inhibition of cisplatin-induced apoptosis in MDCK cells assessed as reduction in caspase 3/7 activity at 30 uM pre-incubated for 1 hr before cisplatin challenge for 16 hrs by luminescence based assay relative to control; assay type: functional; details: Canis lupus familiaris
MDCK [8] = experiment: Inhibition of cisplatin-induced apoptosis in MDCK cells assessed as reduction in caspase 3/7 activity at 100 uM pre-incubated for 1 hr before cisplatin challenge for 16 hrs by luminescence based assay relative to control; assay type: functional; details: Canis lupus familiaris
[9] = molecular target: 2-amino-3-carboxymuconate-6-semialdehyde decarboxylase (Mus musculus) (UniProt Q8R519); experiment: Inhibition of ACMSD in mouse AML12 cells assessed as induction of SOD2 activity incubated for 24 hrs; assay type: cell-based
[10] = molecular target: 2-amino-3-carboxymuconate-6-semialdehyde decarboxylase (Mus musculus) (UniProt Q8R519); experiment: Inhibition of ACMSD in C57BL/6J mouse primary hepatocytes assessed as induction of SOD2 activity incubated for 24 hrs; assay type: cell-based
[11] = molecular target: 2-amino-3-carboxymuconate-6-semialdehyde decarboxylase (Mus musculus) (UniProt Q8R519); experiment: Inhibition of ACMSD in mouse AML12 cells assessed as increase in Sod2 mRNA expression incubated for 24 hrs by RT-qPCR analysis; assay type: cell-based
[12] = molecular target: 2-amino-3-carboxymuconate-6-semialdehyde decarboxylase (Mus musculus) (UniProt Q8R519); experiment: Inhibition of ACMSD in mouse AML12 cells assessed as reduction in FoxO1 phosphorylation at Ser256 residue incubated for 24 hrs; assay type: cell-based
[13] = molecular target: 2-amino-3-carboxymuconate-6-semialdehyde decarboxylase (Homo sapiens) (UniProt Q8TDX5); experiment: Inhibition of ACMSD in human primary hepatocytes assessed as increase in NAD\"\" concentration following compound replacement every 24 hrs by LC-MS/MS analysis relative to control; assay type: cell-based
[14] = molecular target: 2-amino-3-carboxymuconate-6-semialdehyde decarboxylase (Mus musculus) (UniProt Q8R519); experiment: Inhibition of ACMSD in C57BL/6J mouse primary hepatocytes assessed as increase in Pgc1a mRNA expression incubated for 24 hrs by RT-qPCR analysis; assay type: cell-based
[15] = molecular target: 2-amino-3-carboxymuconate-6-semialdehyde decarboxylase (Mus musculus) (UniProt Q8R519); experiment: Inhibition of ACMSD in C57BL/6J mouse primary hepatocytes assessed as increase in Sod2 mRNA expression incubated for 24 hrs by RT-qPCR analysis; assay type: cell-based
[16] = molecular target: 2-amino-3-carboxymuconate-6-semialdehyde decarboxylase (Mus musculus) (UniProt Q8R519); experiment: Inhibition of ACMSD in C57BL/6J mouse primary hepatocytes assessed as increase in Sod1 mRNA expression incubated for 24 hrs by RT-qPCR analysis; assay type: cell-based

Chain of 2-amino-3-carboxymuconate-6-semialdehyde decarboxylase (Mus musculus) (Q8R519 whole entry): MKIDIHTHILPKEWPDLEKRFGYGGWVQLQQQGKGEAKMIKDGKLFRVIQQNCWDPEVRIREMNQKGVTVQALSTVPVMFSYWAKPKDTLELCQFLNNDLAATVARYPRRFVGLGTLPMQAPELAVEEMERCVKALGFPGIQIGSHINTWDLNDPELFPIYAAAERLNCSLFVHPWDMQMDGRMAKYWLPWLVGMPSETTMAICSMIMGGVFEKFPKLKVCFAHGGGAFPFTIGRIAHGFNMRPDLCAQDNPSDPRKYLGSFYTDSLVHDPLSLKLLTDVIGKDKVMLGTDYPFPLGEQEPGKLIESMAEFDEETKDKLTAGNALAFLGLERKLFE
Chain of 2-amino-3-carboxymuconate-6-semialdehyde decarboxylase (Homo sapiens) (Q8TDX5 whole entry, looked up): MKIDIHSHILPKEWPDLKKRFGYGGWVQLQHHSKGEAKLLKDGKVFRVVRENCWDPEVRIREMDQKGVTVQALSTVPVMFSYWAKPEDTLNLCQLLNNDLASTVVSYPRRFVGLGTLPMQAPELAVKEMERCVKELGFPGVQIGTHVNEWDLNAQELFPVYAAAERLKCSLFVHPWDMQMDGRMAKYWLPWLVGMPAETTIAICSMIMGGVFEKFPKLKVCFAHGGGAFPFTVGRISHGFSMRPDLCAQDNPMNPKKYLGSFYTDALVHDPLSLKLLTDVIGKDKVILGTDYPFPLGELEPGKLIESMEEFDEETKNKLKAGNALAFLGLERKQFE

SMILES: O=C(O)c1cccc(CSc2nc(-c3ccccc3)c(Br)c(=O)[nH]2)c1
Activity [1]: Non-Toxic
Activity (HepG2): Non-Toxic

SMILES: N#Cc1c(-c2cccs2)nc(SCc2cccc(-c3noc(=O)[nH]3)c2)[nH]c1=O
Activity [1]: Non-Toxic
Activity (HepG2): Non-Toxic

SMILES: CCCCC(CC)COC(=O)c1ccccc1C(=O)O (stereo not drawn)
inhibition [2]: Active

inhibition [3]: Active
inhibition [4]: Active
SMILES: N#Cc1c(-c2cccs2)nc(SCc2cccc(C(=O)O)c2)[nH]c1=O
Activity [1]: Non-Toxic
Activity (HepG2): Non-Toxic

SMILES: N#Cc1c(-c2cccs2)nc(SCc2cccc(-c3nn[nH]n3)c2)[nH]c1=O
Activity [1]: Non-Toxic
Activity (HepG2): Non-Toxic

SMILES: N#Cc1c(-c2ccc(Cl)cc2)nc(SCc2ccc(C(=O)O)cc2)[nH]c1=O
Activity [1]: Non-Toxic
Activity (HepG2): Non-Toxic

SMILES: N#Cc1c(-c2cccs2)nc(SCc2cccc(CC(=O)O)c2)[nH]c1=O
inhibition (MDCK [5]): Active
inhibition (MDCK [6]): Active
inhibition at 30 µM (MDCK [7]): 29%
inhibition at 100 µM (MDCK [8]): 75%

inhibition [3]: Active
inhibition [9]: Dose-dependent effect
inhibition [10]: Dose-dependent effect
inhibition [11]: Dose-dependent effect
inhibition [12]: Dose-dependent effect
SMILES: N#Cc1c(-c2ccccc2)nc(SCc2cccc(C(=O)O)c2)[nH]c1=O
Activity [1]: Non-Toxic
Activity (HepG2): Non-Toxic

inhibition [9]: Dose-dependent effect
inhibition [10]: Dose-dependent effect
inhibition [13]: Dose-dependent effect
inhibition [14]: Dose-dependent effect
inhibition [15]: Dose-dependent effect
inhibition [16]: inactive
inhibition [12]: Dose-dependent effect
SMILES: N#Cc1c(-c2cccs2)nc(SCc2cccc(-c3nnn[nH]3)c2)[nH]c1=O

SMILES: N#Cc1c(-c2nccs2)nc(SCc2cccc(C(=O)O)c2)[nH]c1=O
Activity [1]: Non-Toxic
Activity (HepG2): Non-Toxic
